PubChem BioAssay AID330 (DTP/NCI, 2004)
Toxic doses and inconclusive results are not listed. Rule for the calls: active = survival T/C of 150% or more; inactive = T/C below 125% in these data. Square brackets hold non-standard residues; d marks the D form. Peptide text beside a SMILES is read from it. * marks the point of attachment. ξ: configuration not given here. Cbz = O=C(OCc1ccccc1)*; ξP = O=C(O)C1CCCN1

Test system: P388 leukemia ip, CD2F1 mice, survival T/C
Assay: NCI In Vivo Anticancer Drug Screen. Data for tumor model P388 Leukemia (intraperitoneal) in CD2F1 (CDF1) mice
Conditions: endpoint: median survival time, higher = longer survival
Summary of the method: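 Mice carrying the transplanted tumor received test compound or vehicle. Survival was recorded in each group, and the value is the treated-group measurement divided by that of the vehicle-treated control group.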

[1] = dose: 50.0 mg/kg/injection, schedule: Q01DX005 (ip), vehicle: Klucel (hydroxypropylcellulose) (HPC)
[2] = dose: 100.0 mg/kg/injection, schedule: Q01DX005 (ip), vehicle: Klucel (hydroxypropylcellulose) (HPC)
[3] = dose: 200.0 mg/kg/injection, schedule: Q01DX005 (ip), vehicle: Klucel (hydroxypropylcellulose) (HPC)
[4] = dose: 50.0 mg/kg/injection, schedule: Q01DX009 (ip), vehicle: saline with Tween-80
[5] = dose: 100.0 mg/kg/injection, schedule: Q01DX009 (ip), vehicle: saline with Tween-80
[6] = dose: 200.0 mg/kg/injection, schedule: Q01DX009 (ip), vehicle: saline with Tween-80
[7] = dose: 100.0 mg/kg/injection, schedule: Q04DX003 (ip), vehicle: saline with Tween-80
[8] = dose: 200.0 mg/kg/injection, schedule: Q01DX005 (ip), vehicle: saline with Tween-80

Measured: T/C

CCOC1CN(C(=O)OC)N1C(=O)OC (configuration not stated)
inactive: dose: 50.0 mg/kg/injection, schedule: Q01DX009 (ip), vehicle: saline 100 % of control | dose: 100.0 mg/kg/injection, schedule: Q01DX009 (ip), vehicle: saline 107 % of control | dose: 200.0 mg/kg/injection, schedule: Q01DX009 (ip), vehicle: saline 105 % of control

CC(=O)Nc1ccc(S(=O)(=O)n2c(=O)oc3ccc(Br)cc32)cc1
inactive: [1] 98 % of control | [2] 100 % of control | [3] 99 % of control

CCCOC(=O)CP(=O)(O)O
inactive: [4] 101 % of control | [5] 95 % of control | [6] 87 % of control

Nc1nc(SCc2ccccc2Cl)c2[nH]cnc2n1
inactive: [7] 100 % of control

NNC(=O)C(N)=O
inactive: dose: 12.5 mg/kg/injection, schedule: Q01DX009 (ip), vehicle: saline with Tween-80 100 % of control | dose: 25.0 mg/kg/injection, schedule: Q01DX009 (ip), vehicle: saline with Tween-80 104 % of control | [4] 100 % of control | [5] 97 % of control

COc1ccc(-c2cc(=O)c3c(O)cc(OC)cc3o2)cc1
inactive: [7] 95 % of control | dose: 200.0 mg/kg/injection, schedule: Q04DX003 (ip), vehicle: saline with Tween-80 90 % of control | dose: 400.0 mg/kg/injection, schedule: Q04DX003 (ip), vehicle: saline with Tween-80 90 % of control

NS(=O)(=O)c1cc([N+](=O)[O-])sc1SSc1sc([N+](=O)[O-])cc1S(N)(=O)=O
inactive: dose: 6.25 mg/kg/injection, schedule: Q01DX001 (ip), vehicle: saline with Tween-80 99 % of control | dose: 12.5 mg/kg/injection, schedule: Q01DX001 (ip), vehicle: saline with Tween-80 104 % of control | dose: 25.0 mg/kg/injection, schedule: Q01DX001 (ip), vehicle: saline with Tween-80 100 % of control

Cc1cc(=O)oc2c(C)c3occc(=O)c3cc12
inactive: dose: 100.0 mg/kg/injection, schedule: Q01DX001 (ip), vehicle: saline with Tween-80 99 % of control | dose: 200.0 mg/kg/injection, schedule: Q01DX001 (ip), vehicle: saline with Tween-80 90 % of control | dose: 400.0 mg/kg/injection, schedule: Q01DX001 (ip), vehicle: saline with Tween-80 87 % of control

NC(=S)c1ncn(C2OC(COC=O)C(OC=O)C2OC=O)c1NC=O (configuration not stated)
inactive: dose: 25.0 mg/kg/injection, schedule: Q01DX005 (ip), vehicle: Klucel (hydroxypropylcellulose) (HPC) 110 % of control | [1] 108 % of control | [2] 113 % of control | [3] 120 % of control | [8] 114 % of control | dose: 400.0 mg/kg/injection, schedule: Q01DX005 (ip), vehicle: Klucel (hydroxypropylcellulose) (HPC) 100 % of control | dose: 400.0 mg/kg/injection, schedule: Q01DX005 (ip), vehicle: saline with Tween-80 97 % of control

CC1(C)[C@H](O)CC[C@]2(C)[C@@H]1CC[C@]13C=C[C@](C)(C1)[C@H](O)C[C@H]32
inactive: dose: 1.88 mg/kg/injection, schedule: Q01DX005 (ip), vehicle: Klucel (hydroxypropylcellulose) (HPC) 96 % of control | dose: 3.75 mg/kg/injection, schedule: Q01DX005 (ip), vehicle: Klucel (hydroxypropylcellulose) (HPC) 94 % of control | dose: 7.5 mg/kg/injection, schedule: Q01DX005 (ip), vehicle: Klucel (hydroxypropylcellulose) (HPC) 91 % of control | dose: 15.0 mg/kg/injection, schedule: Q01DX005 (ip), vehicle: Klucel (hydroxypropylcellulose) (HPC) 95 % of control

COC(=O)c1ccccc1OC(C)=O
inactive: dose: 25.0 mg/kg/injection, schedule: Q01DX009 (ip), vehicle: suspension in saline 99 % of control | dose: 50.0 mg/kg/injection, schedule: Q01DX009 (ip), vehicle: suspension in saline 99 % of control | dose: 100.0 mg/kg/injection, schedule: Q01DX009 (ip), vehicle: suspension in saline 96 % of control | dose: 200.0 mg/kg/injection, schedule: Q01DX009 (ip), vehicle: suspension in saline 100 % of control

COc1ccc(NC(=S)NC(=O)c2ccccc2)cc1OC
inactive: [4] 99 % of control | [5] 100 % of control | [6] 107 % of control

CCOC(=O)c1cc(-c2cc(-c3ccccn3)nnc2-c2ccccn2)c(=O)n(C)c1C
inactive: dose: 100.0 mg/kg/injection, schedule: Q04DX002 (ip), vehicle: saline with Tween-80 102 % of control | dose: 200.0 mg/kg/injection, schedule: Q04DX002 (ip), vehicle: saline with Tween-80 97 % of control | dose: 400.0 mg/kg/injection, schedule: Q04DX002 (ip), vehicle: saline with Tween-80 98 % of control

O=C(O)CNC(=O)C1CCCN1C(=O)OCc1ccccc1 (configuration not stated) (Cbz-[ξP]-Gly-OH)
inactive: dose: 50.0 mg/kg/injection, schedule: Q01DX005 (ip), vehicle: saline with Tween-80 100 % of control | dose: 100.0 mg/kg/injection, schedule: Q01DX005 (ip), vehicle: saline with Tween-80 91 % of control | [8] 91 % of control
